Laboratory results reported in patent US20210260070A1, “LYSIN CF-301 RESENSITIZES METHICILLIN-RESISTANT STAPHYLOCOCCUS AUREUA (MRSA) TO PENICILLIN DERIVATIVES AND FIRST GENERATION CEPHALOSPORINS” (priority 2018, published 2021).
≈ marks a conversion by molar mass, not a printed value.

Experiments:
Format in all cases: cell-based, Staphylococcus aureus
MRSA strain ATCC 33591 = test: Broth microdilution checkerboard assay; set-up: unit not given here
Excerpt: (§1) In some embodiments, the present lysin polypeptides reduce the minimum inhibitory concentration (MIC) of an antibiotic. Any known method to assess MIC may be used. In some embodiments, a checkerboard assay is used to determine the effect of a lysin on antibiotic concentration. The checkerboard assay is based on a modification of the CLSI method for MIC determination by broth microdilution (See Clinical and Laboratory Standards Institute (CLSI), CLSI. 2015. Methods for Dilution Antimicrobial Susceptibility Tests for Bacteria That Grow Aerobically; Approved Standard-10th Edition. Clinical and Laboratory Standards Institute, Wayne, Pa., which is herein incorporated by reference in its entirety and Ceri et al. 1999. J. Clin. Microbiol. 37: 1771-1776, which is also herein incorporated by reference in its entirety).
(§2) Checkerboards are constructed by first preparing columns of e.g., a 96-well polypropylene microtiter plate, wherein each well has the same amount of antibiotic diluted 2-fold along the horizontal axis. […] The lysin and antibiotic dilutions are then combined, so that each column has a constant amount of antibiotic and doubling dilutions of lysin, while each row has a constant amount of lysin and doubling dilutions of antibiotic. Each well thus has a unique combination of lysin and antibiotic. Bacteria are added to the drug combinations at a given concentration. […] Summation fractional inhibitory concentrations (ΣFICs) are calculated for each drug and the minimum ΣFIC value (ΣFICmin) is used to determine the effect of the lysin/antibiotic combination.
(§3) A step-wise approach was used to evaluate PlySs2 as a resensitizing agent. First, broth microdilution checkerboard assays were used to determine fractional inhibitory concentration index (FICI) values for combinations of PlySs2 with three β-lactam antibiotics [oxacillin (OXA), nafcillin (NAF), and cefazoline (CFZ)] against nine different MRSA strains. Data from the checkerboard assays were generated to determine the interaction and potency of PlySs2 with the β-lactam antibiotics in comparison to their individual activities. This comparison is represented as the FICI value, whereby values of ≤0.5 are consistent with synergy, values of >0.5-<1 are highly-additive, values of 1-≤2 are indifferent, and values >2 are antagonistic. Representative single agent MICs are also shown, determined for each agent alone (initial) and in combinations (final). Resensitization occurs in synergistic combinations in which the β-lactam antibiotic MIC values fall below established breakpoints, e.g. a MIC value of ≤2 for β-lactam-sensitive isolates, a MIC value of ≥4 for β-lactam-resistant isolates. See Clinical and Laboratory Standards Institute (CLSI), CLSI. 2019. M100 Performance Standards for Antimicrobial Susceptibility Testing; 29th Edition. Clinical and Laboratory Standards Institute, Wayne, Pa.

MRSA strain ATCC 43300 = test: Broth microdilution checkerboard assay; set-up: unit not given here
Excerpt: as §1, §2, §3

MRSA strain CAIRD 426 = test: Broth microdilution checkerboard assay; set-up: unit not given here
Excerpt: as §1, §2, §3

MRSA strain HPV 107 = test: Broth microdilution checkerboard assay; set-up: unit not given here
Excerpt: as §1, §2, §3

MRSA strain JMI 1280 = test: Broth microdilution checkerboard assay; set-up: unit not given here
Excerpt: as §1, §2, §3

MRSA strain JMI 227 = test: Broth microdilution checkerboard assay; set-up: unit not given here
Excerpt: as §1, §2, §3

MRSA strain JMI4789 = test: Broth microdilution checkerboard assay; set-up: unit not given here
Excerpt: as §1, §2, §3

MRSA strain MW2 = test: Broth microdilution checkerboard assay; set-up: unit not given here
Excerpt: as §1, §2, §3

MRSA strain NRS 11 = test: Broth microdilution checkerboard assay; set-up: unit not given here
Excerpt: as §1, §2, §3

[1] = test system: MRSA isolates from valvular vegetations; test: MIC values of MRSA isolates recovered from valvular vegetations after PlySs2 treatment (ex vivo)
Procedure: (§4) An ex vivo analysis was performed on tissue samples recovered after PlySs2 treatment in a standard rabbit model of MRSA infective endocarditis (IE), as disclosed in Xiong et al., Comparative efficacy of telavancin and daptomycin in experimental endocarditis due to multi-clonotype MRSA strains, J. ANTIMIC. CHEMO. (2016); 71(1):2890-94. The standard rabbit IE model was used to confirm the impact of PlySs2 treatment on oxacillin MICs. Four days after treatment with a single-dose of PlySs2 (0.18 mg/kg to 1.4 mg/kg) in the IE model, isolates were recovered from valvular vegetations and plated on TSAB (non-selective condition, Tables 3 and 4) and TSAB supplemented with PlySs2 over a range of concentrations (selective conditions, Tables 5 and 6). MIC values of the MRSA isolates were determined for both PlySs2 and oxacillin. Tables 3 and 4 below show the MICs calculated for PlySs2 and oxacillin, respectively, for valvular vegetations subject to the non-selective conditions.

S. aureus strain MW2 = test: MIC of parental strain; conditions: Staphylococcus aureus, MW2
Procedure: as §4

[2] = test system: MRSA MW2 mutant and control isolates from valvular vegetations; test: MICs of mutant and control isolates from the rabbit IE study; conditions: for MIC: Staphylococcus aureus
Excerpt: The PlySs2 and oxacillin MICs of each mutant and control strain are shown below in Tables 7 and 8, wherein + indicates the presence of the mutation and—indicates an absence of the mutation.

[3] = in combination PlySs2 + OXA (final), * = Resensitization

## Cc1onc(-c2ccccc2)c1C(=O)N[C@@H]1C(=O)N2[C@@H]1SC(C)(C)[C@@H]2C(=O)O [OXA, oxacillin]
MRSA strain ATCC 33591; each agent alone (initial)
  MICinitial: 256
MRSA strain ATCC 33591; [3]
  MICfinal: 1*
MRSA strain ATCC 43300; each agent alone (initial)
  MICinitial: 8
MRSA strain ATCC 43300; [3]
  MICfinal: 0.5*
MRSA strain CAIRD 426; each agent alone (initial)
  MICinitial: 4
MRSA strain CAIRD 426; [3]
  MICfinal: 1*
MRSA strain HPV 107; each agent alone (initial)
  MICinitial: 8
MRSA strain HPV 107; [3]
  MICfinal: 0.5*
MRSA strain JMI 1280; each agent alone (initial)
  MICinitial: 256
MRSA strain JMI 1280; [3]
  MICfinal: 1*
MRSA strain JMI 227; each agent alone (initial)
  MICinitial: 16
MRSA strain JMI 227; [3]
  MICfinal: 1*
MRSA strain JMI4789; each agent alone (initial)
  MICinitial: 64
MRSA strain JMI4789; [3]
  MICfinal: 2*
MRSA strain MW2; each agent alone (initial)
  MICinitial: 64
MRSA strain MW2; [3]
  MICfinal: 2*
MRSA strain NRS 11; each agent alone (initial)
  MICinitial: 256
MRSA strain NRS 11; [3]
  MICfinal: 2*
[1]; Staphylococcus aureus, MRSA, read-out: Oxacillin MIC after PlySs2 exposure
  MIC: < 2 µg/mL
[1]; isolates after PlySs2 exposure in rabbit IE, selective conditions
  Reduction in oxacillin MIC values: greater than 16 fold
S. aureus strain MW2
  MIC: 32 µg/mL
[2]; Control #1 isolate
  MIC: 64 µg/mL (≈ 159 µM)
[2]; Control #2 isolate
  MIC: 32 µg/mL (≈ 79.7 µM)
[2]; Control #3 isolate
  MIC: 64 µg/mL (≈ 159 µM)
[2]; Mutant #1 (hlgCB near, mprF L291I, rlmH K159R, ΔSCCmec)
  MIC: 1 µg/mL (≈ 2.49 µM)
[2]; Mutant #2 (hlgCB near, graR I158S, rlmH K159R, ΔSCCmec)
  MIC: 1 µg/mL (≈ 2.49 µM)
[2]; two mutants from the valvular vegetations
  Decrease in oxacillin MIC: 32 fold
